# According to patent publication US11879021B2, “Cyclic peptides and uses thereof” (UNIVERSITÉ DE MONTRÉAL, priority 2016, dated 2024):
# What was measured:
# [1] = tested on: R-FSL-1-induced IL-1β and TNF-α secretion in bone marrow-derived macrophages; assay: IL-1β and TNF-α secretion in bone marrow-derived macrophages (BMDM) stimulated with R-FSL-1; type: cell-based, mice; settings: murine BMDM primed with LPS, 10^−6 to 10^−11 M
# Excerpt: Bone marrow-derived macrophages isolation and purification. Bone marrow-derived macrophages (BMDM) were isolated from the tibia and femur of 4-month-old C57Bl/6 mice. Mice were euthanized in a CO2 chamber individually. Tibia and femur were dissected from dead mice after removing the skin and the muscles and stored in cold DMEM before use. The bones are placed in Petri dishes containing sterile PBS and immersed in ice. In a laminar flow of culture, bones are immersed in 70% ethanol for one minute, and then rinsed in sterile PBS. Bones were cut in 2 pieces using sterile forceps and scissors and put in pierced 0.6 mL tubes which were put in 2 mL centrifuge tubes containing 200 μL of DMEM. After 1 min of centrifugation at 6500 RPM, pellets of bone marrow cells were gently resuspended and pooled in a 50 mL tube. Cells were counted and monocytes were purified from the bone marrow cells using the EasySep™ Mouse Monocyte Isolation Kit (StemCell Technologies, #19861) according to the manufacturer instructions. […] Statistical significance of data was analyzed by analysis of variance (ANOVA) with post-hoc comparisons using Dunnett's test with statistical software package (Graph Pad Prism version 7.0). […]
# [2] = tested on: R-FSL-1 (TLR2 agonist)-induced TNF-α and CCL-2 release in RAW macrophages; assay: R-FSL-1-induced TNF-α and CCL-2 release in RAW macrophages; type: cell-based, murine; settings: 10^−7 M
structure (smiles),measurement,setting,value
C=CCN1CC#CCN(NC(=O)[C@H](C)N)C(=O)N[C@H](Cc2c[nH]c3ccccc23)C(=O)N[C@@H](C)C(=O)N[C@@H](Cc2c[nH]c3ccccc23)C(=O)N[C@H](Cc2ccccc2)C(=O)N[C@H](C(N)=O)CCCC1 [MPE-298],secretion of IL-1β induced by R-FSL-1,[1],able to inhibit
same,secretion of TNF-α induced by R-FSL-1,[1],able to inhibit
same,inhibitory effect on R-FSL-1-induced CCL-2 release compared with reference standard DBG178 (MPE-001),[2],significantly higher
